Patent publication US20060094722A1 (Eisai Co., Ltd., priority 2002, published 2006)
Read-outs that look alike come from different tables or passages of the source. Blank lines part the entries; values can stand above or below the compound they belong to.

Experiments:
[1] = test system: DPPIV-deficient male Fisher rats
Experimental: Animals: DPPIV-deficient male Fisher rats (purchased from Charles River Japan, Inc.)
Each test compound was suspended in a solution of 0.5% methyl cellulose at the doses indicated in Table 2, and then administered orally at a volume of 5 mL/kg. The vehicle control group was orally administered a solution of 0.5% methyl cellulose at a volume of 5 mL/kg.
An unanesthetized rat was lightly cut at the caudal vein with a razor blade and bled immediately before, and at 1, 3, and 5 hours after the administration of a test compound or a solution of 0.5% methyl cellulose. 250 μL of blood was collected from the rat using a heparinized capillary and transferred into a centrifugation tube. The supernatant obtained by centrifugation (at 10000 g at 4° C. for 2 minutes) was assayed for GLP-1 level using Active GLP-1 ELISA kit (Linco).

[2] = test system: BALB/c AnCrj mice; conditions: 5-FU 60 mg/kg p.o. for 3 days
Experimental: Animals: BALB/c AnCrj Mice (Purchased from Charles River Japan, Inc.)
5-FU (purchased from Sigma) was suspended in a solution of 0.5% methyl cellulose, and then administered orally at a volume of 10 mL/kg/day (8 a.m. to 9 a.m.) for 3 days (60 mg/kg). […] The vehicle control group was orally administered a solution of 0.5% methyl cellulose at a volume of 10 mL/kg.
Mice were fasted for 18 hours following the afternoon administration on the third day of the administration series. On the following day, the mice were killed by cervical dislocation, and then the whole small intestine was excised and the wet weight was measured.

[3] = test system: DPPIV-intact normal male Fisher rats; test: Influences of metformin and DPPIV inhibitors (Examples 82, 119, 120, 122, 229, 267), singly or in combination, on GLP-1 level in normal rats; format: in vivo, rat; conditions: 3 hours
Experimental: Animals: DPPIV-Intact Normal Male Fisher Rats (Purchased from CLEA Japan, Inc.)
250 μL of blood was collected from the rat using a heparinized capillary and transferred into a centrifugation tube.

[4] = target: T1, DPPIV obtained from swine kidney (Sus scrofa, UniProt P22411); test: Assay for the DPPIV-inhibiting activity; format: biochemical; conditions: DPPIV 10 mU/mL; Gly-Pro-p-nitroanilide 0.33 mM; absorbance 405 nm; read-out: IC50
T1 construct: DPPIV obtained from swine kidney; from tissue; host or cells: swine kidney
Experimental: DPPIV obtained from swine kidney was dissolved in a reaction buffer (50 mM Tris-HCl (pH 7.4)/0.1% BSA) at a fmal concentration of 10 mU/mL. A 110 μL aliquot of this enzyme solution was added to the reaction system, and then 15 μL of an agent was added. The reaction solution was incubated at room temperature for 20 minutes. 25 μL of a solution containing 2 mM Gly-Pro-p-nitroanilide was added to the reaction solution (at the final concentration of 0.33 mM) to start the enzyme reaction. The reaction time was 20 minutes. 25 μL of 1N phosphate solution was added to stop the reaction. […] The degree of inhibition to the enzyme reaction was determined, and IC50 was computed based on the absorbance.

T1 sequence (P22411 whole entry): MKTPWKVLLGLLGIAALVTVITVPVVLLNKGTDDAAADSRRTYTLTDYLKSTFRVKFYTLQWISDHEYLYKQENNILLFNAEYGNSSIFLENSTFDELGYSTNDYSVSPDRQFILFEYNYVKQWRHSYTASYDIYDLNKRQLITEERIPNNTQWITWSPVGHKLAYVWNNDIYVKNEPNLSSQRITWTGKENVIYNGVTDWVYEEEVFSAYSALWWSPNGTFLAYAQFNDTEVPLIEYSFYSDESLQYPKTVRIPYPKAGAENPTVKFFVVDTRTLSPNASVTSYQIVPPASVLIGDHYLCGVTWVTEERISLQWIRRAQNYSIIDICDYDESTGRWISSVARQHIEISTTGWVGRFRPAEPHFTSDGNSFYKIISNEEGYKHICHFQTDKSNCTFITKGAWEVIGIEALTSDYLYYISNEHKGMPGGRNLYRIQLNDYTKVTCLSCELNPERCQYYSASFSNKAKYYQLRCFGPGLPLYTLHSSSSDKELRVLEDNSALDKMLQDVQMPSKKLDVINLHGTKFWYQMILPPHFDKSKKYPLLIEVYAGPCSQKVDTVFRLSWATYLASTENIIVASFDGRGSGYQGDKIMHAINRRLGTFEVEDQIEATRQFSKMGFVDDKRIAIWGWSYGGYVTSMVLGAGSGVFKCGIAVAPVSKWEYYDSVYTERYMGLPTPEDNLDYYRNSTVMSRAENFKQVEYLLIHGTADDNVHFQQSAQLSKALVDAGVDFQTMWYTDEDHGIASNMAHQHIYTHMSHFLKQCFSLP

Structure (SMILES): CCCCNC(=N)NC(=N)N [Buformin, buformin]
GLP-1 concentration at each time point (hr) after oral administration (% of Pre) ([1]; 30 mg/kg p.o., 0 hr): 100 ± 0.0 % of Pre
GLP-1 concentration at each time point (hr) after oral administration (% of Pre) ([1]; 30 mg/kg p.o., 1 hr): 118.7 ± 9.3 % of Pre
GLP-1 concentration at each time point (hr) after oral administration (% of Pre) ([1]; 30 mg/kg p.o., 3 hr): 122.7 ± 7.1 % of Pre
GLP-1 concentration at each time point (hr) after oral administration (% of Pre) ([1]; 30 mg/kg p.o., 5 hr): 114.6 ± 4.4 % of Pre
GLP-1 concentration at each time point (hr) after oral administration (% of Pre) ([1]; 100 mg/kg p.o., 0 hr): 100 ± 0.0 % of Pre
GLP-1 concentration at each time point (hr) after oral administration (% of Pre) ([1]; 100 mg/kg p.o., 1 hr): 163.6 ± 19.6 % of Pre
GLP-1 concentration at each time point (hr) after oral administration (% of Pre) ([1]; 100 mg/kg p.o., 1 hr, listed as buformin): significantly elevated
GLP-1 concentration at each time point (hr) after oral administration (% of Pre) ([1]; 100 mg/kg p.o., 3 hr): 171.2 ± 9.1 % of Pre
GLP-1 concentration at each time point (hr) after oral administration (% of Pre) ([1]; 100 mg/kg p.o., 5 hr): 195.8 ± 36.6 % of Pre
GLP-1 concentration at each time point (hr) after oral administration (% of Pre) ([1]; 100 mg/kg p.o., 5 hr, listed as buformin): significantly elevated

wet weight of mouse small intestine [2]: significantly decreased
Structure (SMILES): O=c1[nH]cc(F)c(=O)[nH]1 [Example 5-FU, 5-Fluorouracil]

Structure (SMILES): CC#CCn1c(N2CCNCC2)nc2nc(C#N)n(C)c(=O)c21.O=C(O)C(F)(F)F [Example 82, 7-(2-Butynyl)-2-cyano-1-methyl-8-(piperazin-1-yl)-1,7-dihydropurin-6-one trifluoroacetate]
GLP-1 concentration 3 hours after oral administration (% of Pre) ([3]; 20 mg/kg p.o.): 97.3 ± 2.1 % of Pre

IC50 [4]: 154 nM
Structure (SMILES): CC#CCn1c(N2CCNCC2)nc2cnn(C)c(=O)c21 [Example 119, 3-(2-Butynyl)-5-methyl-2-(piperazin-1-yl)-3,5-dihydroimidazo[4,5-d]pyridazin-4-one]
GLP-1 concentration 3 hours after oral administration (% of Pre) ([3]; 10 mg/kg p.o.): 98.9 ± 2.2 % of Pre

Structure (SMILES): CC#CCn1c(N2CCCC(N)C2)nc2cnn(C)c(=O)c21.O=C(O)C(F)(F)F (stereo not drawn) [Example 120, 2-(3-Aminopiperidin-1-yl)-3-(2-butynyl)-5-methyl-3,5-dihydroimidazo[4,5-d]pyridazin-4-one trifluoroacetate]
GLP-1 concentration 3 hours after oral administration (% of Pre) ([3]; 10 mg/kg p.o.): 104.8 ± 2.9 % of Pre

IC50 [4]: 15.3 nM
Structure (SMILES): CC#CCn1c(N2CCNCC2)nc2nc(Oc3ccccc3C(N)=O)n(C)c(=O)c21 [Example 122, 2-[7-(2-Butynyl)-1-methyl-6-oxo-8-(piperazin-1-yl)-6,7-dihydro-1H-purin-2-yloxy]benzamide]
GLP-1 concentration 3 hours after oral administration (% of Pre) ([3]; 10 mg/kg p.o.): 108.2 ± 6.6 % of Pre

Structure (SMILES): CC#CCn1c(N2CCNCC2)nc2nc(C#N)n(Cc3ccccc3C#N)c(=O)c21.Cl [Example 229, 7-(2-Butynyl)-1-(2-cyanobenzyl)-6-oxo-8-(piperazin-1-yl)-6,7-dihydro-1H-purine-2-carbonitrile hydrochloride]
GLP-1 concentration 3 hours after oral administration (% of Pre) ([3]; 10 mg/kg p.o.): 102.5 ± 1.7 % of Pre
